The species named for assay [1] is Mus musculus. Briefly: Antiepileptic activity in Mus musculus (mouse) assessed as minimum dose required to protect half or more number of animals against maximal electroshock-induced seizures after 0.5 hr. The note with it: read-out: MED. Type of assay: functional. For orientation: The maximal electroshock test induces tonic seizures with an electrical stimulus.

Assay [2] has as its system Mus musculus. Description: Antiepileptic activity in Mus musculus (mouse) assessed as protection against maximal electroshock-induced seizures at 300 mg/kg after 0.5 hr. Format: functional, organism-based. On the set-up: dose 300 mg/kg.

Active and inactive are the calls of the source. The rule behind the calls is not given here.

In the case of `CCOc1ccc(NC(=O)N/N=C(\C)c2ccccc2O)cc1`, the minimal effective dose in assay [1] came to 100 mg/kg.
Still for that read-out and setting: in the case of `O=c1snc(Nc2cccc3ccccc23)n1-c1cccc2ccccc12` it was 100 mg/kg; in that of `O=c1snc(Nc2ncccn2)n1-c1ncccn1`, 300 mg/kg; in that of `CCOc1ccc(NC2=NSC(Nc3ccc(OCC)cc3)N2)cc1` (centres undefined), 100 mg/kg.
As to `CCOc1ccc(Nc2nsc(=O)n2-c2ccc(OCC)cc2)cc1`, the minimal effective dose in assay [1] amounted to 100 mg/kg.
`Cc1ccc(NC(=S)Nc2ccc(S(=O)(=O)Nc3ccc(C)cc3)cc2)cc1`: the minimal effective dose in assay [1] worked out at 300 mg/kg.
In the case of `Fc1ccc(NC2=NSC(Nc3ccc(F)cc3)N2)cc1` (centres undefined), in assay [1], the minimal effective dose was determined as 100 mg/kg.
On to `Cc1ccc(NC(=S)Nc2ccc(S(=O)(=O)Nc3ccc(Cl)cc3)cc2)cc1`, for which, in assay [1], the minimal effective dose was found to be 100 mg/kg.
As for `C/C(=N\NC(=O)Nc1ccc(Br)cc1)c1ccc(C)cc1`, the outcome in assay [2] was inactive.
For the compound `O=c1snc(Nc2ccncc2)n1-c1ccncc1`, the minimal effective dose in assay [1] was determined as 300 mg/kg.
As to `O=C(N/N=C/c1ccccc1[N+](=O)[O-])Nc1ccc(Br)cc1`, in assay [1], the minimal effective dose amounted to 300 mg/kg.
Regarding `CCOc1ccc(NC(=O)N/N=C(\C)CC(C)=O)cc1`, the minimal effective dose in assay [1] stood at 100 mg/kg.
Still for that read-out and setting: in the case of `C/C(=N\NC(=O)Nc1ccc(Br)cc1)c1ccc(N)cc1` it was 300 mg/kg.
The same measure, in the same setting: under `C/C(=N\NC(=O)Nc1ccc(Br)cc1)c1ccc([N+](=O)[O-])cc1` stands 300 mg/kg.
For `C/C(=N\NC(=O)Nc1ccc(Br)cc1)c1ccccc1`, the minimal effective dose in assay [1] turned out to be 100 mg/kg.
Consider `c1cc(NC2=NSC(Nc3ccncc3)N2)ccn1` (centres undefined), for which the minimal effective dose in assay [1] stood at 300 mg/kg.
Regarding `C/C(=N\NC(=O)Nc1ccc(Br)cc1)c1ccc(O)cc1`, the minimal effective dose in assay [1] came to 300 mg/kg.
Regarding `CC(C)=NNC(=O)Nc1ccc([N+](=O)[O-])cc1`, the minimal effective dose in assay [1] worked out at 300 mg/kg.
`O=C(NN=C1c2ccccc2C(=O)c2ccccc21)Nc1ccc([N+](=O)[O-])cc1`: the minimal effective dose in assay [1] came out at 300 mg/kg.
Consider `O=C(NN=C(c1ccccc1)c1ccccc1)Nc1ccc(Br)cc1`, for which the minimal effective dose in assay [1] was 300 mg/kg.
On to `O=c1snc(Nc2ccc(F)cc2)n1-c1ccc(F)cc1`, for which the minimal effective dose in assay [1] was 100 mg/kg.
`CN(C)c1ccc(/C=N/NC(=O)Nc2ccc(Br)cc2)cc1`: in assay [1], the minimal effective dose turned out to be 300 mg/kg.
As to `CCNC(=S)Nc1ccc(S(=O)(=O)Nc2nc3ccc(F)cc3s2)cc1`, the minimal effective dose in assay [1] came out at 300 mg/kg.
As to `CCOc1ccc(NC(=O)N/N=C(\C)c2ccc(Cl)cc2)cc1`, the minimal effective dose in assay [1] worked out at 300 mg/kg.
As for `COc1ccc(/C=N/NC(=O)Nc2ccc(Br)cc2)cc1OC`, the minimal effective dose in assay [1] amounted to 300 mg/kg.
With `c1cncc(NC2=NSC(Nc3cccnc3)N2)c1` (centres undefined), the minimal effective dose in assay [1] stood at 300 mg/kg.
Same read-out and setting: in the case of `O=C1C=CC(=NNC(=O)Nc2ccc([N+](=O)[O-])cc2)C=C1` it was 300 mg/kg; in that of `COc1cc(/C=N/NC(=O)Nc2ccc(Br)cc2)ccc1O`, 300 mg/kg; in that of `Cc1ccc(NC(=S)Nc2ccc(S(=O)(=O)Nc3ccc(Br)cc3)cc2)cc1`, 100 mg/kg.
`CNC(=S)Nc1ccc(S(=O)(=O)Nc2nc3ccc(F)cc3s2)cc1`: the minimal effective dose in assay [1] was found to be 300 mg/kg.
As to `CCOc1ccc(NC(=O)N/N=C(\C)CC(C)C)cc1`, in assay [1], the minimal effective dose was 100 mg/kg.
Consider `CNC(=S)Nc1ccc(S(=O)(=O)Nc2nc3ccc(Cl)cc3s2)cc1`, for which the result in assay [2] was inactive.
For `c1ccc(NC2=NSC(Nc3ccccn3)N2)nc1` (centres undefined), the minimal effective dose in assay [1] is 300 mg/kg.
`O=c1snc(Nc2ccccn2)n1-c1ccccn1`: the minimal effective dose in assay [1] amounted to 300 mg/kg.
On to `CNC(=S)Nc1ccc(S(=O)(=O)Nc2ccc(Br)cc2)cc1`, for which, in assay [1], the minimal effective dose is 300 mg/kg.
Consider `CCOc1ccc(NC(=O)N/N=C(\C)c2ccc(O)cc2)cc1`, for which the minimal effective dose in assay [1] was 100 mg/kg.
Take `CCNC(=S)Nc1ccc(S(=O)(=O)Nc2nc3ccc(Cl)cc3s2)cc1`: the outcome in assay [2] was inactive.
Take `CCOc1ccc(NC(=O)N/N=C/c2ccccc2O)cc1`: the minimal effective dose in assay [1] turned out to be 300 mg/kg.
For the compound `CNC(=S)Nc1ccc(S(=O)(=O)Nc2ccc(Cl)cc2)cc1`, in assay [1], the minimal effective dose worked out at 300 mg/kg.
On the same count and under the same terms, in the case of `CCOc1ccc(NC(=O)N/N=C/c2ccccc2Cl)cc1` it was 100 mg/kg; in that of `c1ccc2c(NC3=NSC(Nc4cccc5ccccc45)N3)cccc2c1` (centres undefined), 100 mg/kg; in that of `CNC(=S)Nc1ccc(S(=O)(=O)Nc2nc3ccc(OC)cc3s2)cc1`, 300 mg/kg.
As for `O=C(N/N=C/c1ccccc1Cl)Nc1ccc(Br)cc1`, the minimal effective dose in assay [1] worked out at 300 mg/kg.
For `O=c1snc(Nc2cccnc2)n1-c1cccnc1`, the minimal effective dose in assay [1] was found to be 300 mg/kg.

Values taken from ChEMBL document CHEMBL3044657, “Identification of an antiepileptic lead compound with a more selective activity and its analogues for GABA-AT using in silico approach” (2013).
